According to patent US7407934B2, “Methods for regulating postprandial blood glucose” (Amylin Pharmaceuticals, Inc., priority 1993, dated 2008):
Values belong to the molecule of their own block, whether it stands above or below them.

Assays:
[1] = Post-prandial plasma glucose after IV bolus or IV infusion in insulin-dependent diabetic subjects (Example 2); type: in vivo, human
Description: (§1) Subjects in each dose group underwent a two period crossover to examine intravenous (IV) bolus versus IV infusion of drug. Each period consisted of a three-day confinement to the study unit. On each occasion, the initial day of confinement was allowed for acclimatization to the study unit. The second and third days constituted an imbedded crossover of placebo versus active medication. […] An imbedded cross-over design for the administration of drug and placebo on Days 2 and 3 of this admission was employed in a manner similar to that used during the first admission. The six subjects assigned to the placebo group received placebo on each of the study days. On study days, intravenous catheters were inserted at least 30 minutes prior to the start of the study. 15 minutes before dosing, the subjects took their usual insulin dose via subcutaneous injection. […] The infusion rate was designed to administer the assigned amount of drug over the two hour period. Thirty minutes later, the subjects ingested their normal breakfasts. Blood samples were taken between −30 and 300 minutes for the measurement of plasma.

[2] = design: species or system human; details: in vivo, iv
Description: as §1

[3] = Plasma glucose after Sustacal meal or IV glucose load during AC-0137 infusion (Example 3); type: in vivo, human
Description: Twenty-seven subjects with insulin-dependent diabetes mellitus were allocated into a combination of two dose level groups and two types of tolerance tests.
Subjects remained in the clinic for three days. On the first day of confinement, the subjects were acclimatized to the clinic. […] In addition, subjects received either a Sustacal® meal or iv glucose tolerance test, as determined by the group assignment.
During the first day, the subject's usual insulin and caloric intake was stabilized and each subject then followed this insulin and dietary regimen throughout confinement in the clinic.
at approximately, 0700 h (T=0), the continuous infusion of study medication was initiated. At T=30 minutes, the subjects administered their usual AM dose of insulin. […] The type of tolerance test was determined according to the randomization schedule. […] Study drug administration was discontinued at t=300 minutes.
On the morning of the third day, iv lines were again placed in a similar manner as on Day 2. Subjects administered their usual pre-breakfast dose of insulin as on Day 2. […] An identical standardized Sustacal® meal tolerance or iv glucose load as they received on Day 2 was again administered. At the end of the sampling period the iv lines were withdrawn.

[4] = 14-day study, Sustacal meal tolerance test glucose (Example 4); type: in vivo, human; details: 14 days
Description: 72 subjects with insulin-dependent diabetes mellitus participated in a 14-day clinical trial. Each subject was randomly assigned to one of four treatment groups, receiving placebo, 30, 100 or 300 μg tripro-amylin by subcutaneous injection three times a day for 14 days. The subjects also remained on their usual insulin regimen throughout the study. On days 1 (baseline), 7 and 14, standardized meal tolerance tests were performed.
For the standardized meal tolerance tests, subjects were given a Sustacal® liquid meal (360 ml containing 360 calories) at 0800 h. Subjects abstained from food or drink (except for water) from 2200 h the night before. […] For a baseline test, on day 1, tripro-amylin (or placebo) was not administered until after completion of the test. On day 7 and 14, tripro-amylin (or placebo) was administered in a separate injection at the same time as the usual morning insulin dose. Samples for determination of serum glucose levels were drawn at −30, 0, 30, 60, 120 and 180 minutes relative to the start of the challenge. Time zero was considered to be the time when the subject began to drink the Sustacal® meal.

[5] = Oral glucose tolerance test in dogs during amylin infusion (Example 1); type: in vivo, dog
Description: Mongrel dogs (9 males, 12-17 kg wt. range) were used for this study. All animals were fasted overnight prior to each study. Each animal served as its own control for all protocols. Animals were equilibrated for 30-60 minutes prior to the start of each protocol.
25% glucose (1 gm/kg) was administered by mouth at t=0 minutes. […] Samples for insulin, glucose and lactate were obtained at 15 minutes intervals from t=−45 to t=180 minutes.

[6] = Uptake of labelled oral glucose load in corpulent LA/N rats (Example 6); type: in vivo, rat
Description: Uptake of an ingested glucose load was measured in 11 conscious 24-hr fasted corpulent (500-600 g) LA/N rats on 2 occasions, 14 days apart.

- Disappearance of drug from plasma compartment [2]: apparent first-order kinetics
Molecule: CC[C@H](C)[C@H](NC(=O)[C@@H]1CCCN1C(=O)CNC(=O)[C@H](Cc1ccccc1)NC(=O)[C@H](CC(N)=O)NC(=O)[C@H](CC(N)=O)NC(=O)[C@H](CO)NC(=O)[C@H](CO)NC(=O)[C@H](Cc1c[nH]cn1)NC(=O)[C@@H](NC(=O)[C@H](CC(C)C)NC(=O)[C@H](Cc1ccccc1)NC(=O)[C@H](CC(N)=O)NC(=O)[C@H](C)NC(=O)[C@H](CC(C)C)NC(=O)[C@H](CCCNC(=N)N)NC(=O)[C@H](CCC(N)=O)NC(=O)[C@@H](NC(=O)[C@H](C)NC(=O)[C@@H]1CSSC[C@H](NC(=O)[C@@H](N)CCCCN)C(=O)N[C@@H](CC(N)=O)C(=O)N[C@@H]([C@@H](C)O)C(=O)N[C@@H](C)C(=O)N[C@@H]([C@@H](C)O)C(=O)N1)[C@@H](C)O)C(C)C)C(=O)N[C@@H](CC(C)C)C(=O)N1CCC[C@H]1C(=O)N1CCC[C@H]1C(=O)N[C@H](C(=O)N[C@@H](CC(N)=O)C(=O)N[C@H](C(=O)NCC(=O)N[C@@H](CO)C(=O)N[C@@H](CC(N)=O)C(=O)N[C@H](C(=O)N[C@@H](Cc1ccc(O)cc1)C(N)=O)[C@@H](C)O)C(C)C)[C@@H](C)O [^25,28,29Pro-h-Amylin]
- Post-prandial glucose levels ([1]; IV bolus 30 μg): no apparent change in glucose levels
- Post-prandial rise in glucose ([1]; IV bolus 100 μg): clearly delayed and less pronounced
- Post-prandial rise in glucose ([1]; IV bolus 300 μg): essentially eliminated
- Post-prandial rise in glucose ([1]; IV infusion 15 μg/hr): highly suggestive of an effect
- Post-prandial rise in glucose ([1]; IV infusion 50 and 150 μg/hr): striking
- Post-prandial hyperglycemia ([1]; continuous 2-hour IV infusion, 15-150 μg/hr): dose-dependent reduction in post-prandial hyperglycemia
- Plasma glucose levels vs placebo ([3]; IV glucose load 300 mg/kg, 50 μg/hr IV infusion): not significantly different from placebo-treated subjects
- Plasma glucose levels vs placebo ([3]; Sustacal meal, 25 μg/hr or 50 μg/hr IV infusion): reduced
- Post-meal glucose: Mean of changes in AUC ([4]; 30 micrograms s.c. 3 times daily): −6,645 mb/dl * min.
- Post-meal glucose: Mean of changes in AUC ([4]; 100 micrograms s.c. 3 times daily): −6,412 mb/dl * min.
- Post-meal glucose: Mean of changes in AUC ([4]; 300 micrograms s.c. 3 times daily): −7,316 mb/dl * min.

Molecule: acetyl-^11,18Arg, ^30Arg, ^32Tyr-^9-32calcitonin (salmon) [AC-0253]
- Changes in plasma glucose, antagonist alone ([5]; AC-0253 alone): no effect
- Reversal of amylin-induced changes in plasma glucose ([5]; AC-0253 up to 1500 pmol/kg/min with amylin 50 pmol/kg/min): does not completely reverse the effects of amylin
- Effects on plasma lactate ([5]; oral glucose load): unremarkable

Molecule: ac-^10N^32Y8-32-salmon calcitonin [AC-0187]
- Acceleration of appearance of glucose-derived tritium in plasma ([6]; 3 μg s.c. 3 min before gavage, 15 minutes post-gavage (P<0.02)): 48%
- Acceleration of appearance of glucose-derived tritium in plasma ([6]; 3 μg s.c., 30 minutes post-gavage (P<0.001)): 45%
- Plasma glucose ([6]; 15 minutes after gavage with 0.5 g glucose, rise from 5.89±0.17): 8.33 ± 0.28 mM
- Plasma glucose ([6]; 60 minutes after glucose gavage): 6.89 ± 0.28 mM
